Measured values as given in patent US7820817B2, “Modulators of muscarinic receptors” (Vertex Pharmaceuticals Incorporated, priority 2004, dated 2010).

System: at least one muscarinic receptor, M1, M2, M3, M4
Assay: Muscarinic modulation activity (Table 3)
Format: cell-based
Design: key: +++: exhibited muscarinic modulation activity for at least one muscarinic receptor, M1, M2, M3, M4, at a concentration of less than 5 μM; ++: exhibited muscarinic modulation activity for at least one muscarinic receptor, M1, M2, M3, M4, at a concentration of between 30 μM and 5 μM; +: exhibited muscarinic modulation activity for at least one muscarinic receptor, M1, M2, M3, M4, at a concentration of greater than 30 μM; −: were not assayed or did not exhibit muscarinic modulation activity for at least one muscarinic receptor, M1, M2, M3, M4, at the concentration at which the assay was performed
Settings: concentration at which modulation of at least one muscarinic receptor, M1, M2, M3, M4, was exhibited; CHO cells
Outline: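 CHO cells expressing M1–M5 loaded with Fluo-3 AM or Calcium 3 dye plus 1 mM probenecid; FLIPR fluorescence read for 60 sec after compound addition (agonist mode) or after 15 min pre-incubation then carbachol at EC80 (inhibition mode); 0.5% DMSO final.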

| SMILES | ACTIVITY (muscarinic modulation activity) |
| --- | --- |
| Clc1cccnc1N1CCN(C2CC3CCC2C3)CC1 (centres unmarked) [Compound 7, 1-(3-chloro-2-pyridyl)-4-norbornan-2-yl-piperazine] | +++ (exhibited muscarinic modulation activity for at least one muscarinic receptor, M1, M2, M3, M4, at a concentration of less than 5 μM) |
| Clc1cncc(Cl)c1N1CCN(CC2CC3C=CC2C3)CC1 (centres unmarked) [Compound 26, 1-(5-bicyclo[2.2.1]hept-2-enylmethyl)-4-(3,5-dichloro-4-pyridyl)-piperazine] | − |
| Cc1cccc(N2CCN(C3CC4CCC3C4)CC2)n1 (centres unmarked) [Compound 77, 1-(6-methyl-2-pyridyl)-4-norbornan-2-yl-piperazine] | − |
| N#Cc1ccc(N2CCN(CC3CC4C=CC3C4)CC2)nc1 (centres unmarked) [Compound 13, 6-[4-(5-bicyclo[2.2.1]hept-2-enylmethyl)piperazin-1-yl]nicotinonitrile] | +++ (exhibited muscarinic modulation activity for at least one muscarinic receptor, M1, M2, M3, M4, at a concentration of less than 5 μM) |
| N#Cc1nccnc1N1CCN(CC2CCC3CCC2C3)CC1 (centres unmarked) [Compound 23, 3-[4-(4-bicyclo[3.2.1]octylmethyl)piperazin-1-yl]pyrazine-2-carbonitrile] | − |
| c1cc(N2CCN(C3CC4CCC(C4)C3)CC2)ccn1 (centres unmarked) [Compound 35, 1-(3-bicyclo[3.2.1]octyl)-4-(4-pyridyl)piperazine] | ++ (exhibited muscarinic modulation activity for at least one muscarinic receptor, M1, M2, M3, M4, at a concentration of between 30 μM and 5 μM) |
| Cc1cnc(C)c(N2CCN(CC3CC4C=CC3C4)CC2)n1 (centres unmarked) [Compound 16, 3-[4-(5-bicyclo[2.2.1]hept-2-enylmethyl)piperazin-1-yl]-2,5-dimethyl-pyrazine] | +++ (exhibited muscarinic modulation activity for at least one muscarinic receptor, M1, M2, M3, M4, at a concentration of less than 5 μM) |
| CCOC(=O)N1C2CCC1CC(N1CCN(c3nc(C)cc(C)c3C#N)CC1)C2 (centres unmarked) [Compound 78, 3-[4-(3-cyano-4,6-dimethyl-2-pyridyl)piperazin-1-yl]-8-azabicyclo[3.2.1]octane-8-carboxylic acid ethyl ester] | ++ (exhibited muscarinic modulation activity for at least one muscarinic receptor, M1, M2, M3, M4, at a concentration of between 30 μM and 5 μM) |
| CCOC(=O)N1C2CCC1CC(N1CCN(c3ccc(C(C)=O)cn3)CC1)C2 (centres unmarked) [Compound 51, 3-[4-(5-acetyl-2-pyridyl)piperazin-1-yl]-8-azabicyclo[3.2.1]octane-8-carboxylic acid ethyl ester] | +++ (exhibited muscarinic modulation activity for at least one muscarinic receptor, M1, M2, M3, M4, at a concentration of less than 5 μM) |
| CCOC(=O)N1C2CCC1CC(N1CCN(c3ncccc3F)CC1)C2 (centres unmarked) [Compound 30, 3-[4-(3-fluoro-2-pyridyl)piperazin-1-yl]-8-azabicyclo[3.2.1]octane-8-carboxylic acid ethyl ester] | +++ (exhibited muscarinic modulation activity for at least one muscarinic receptor, M1, M2, M3, M4, at a concentration of less than 5 μM) |
| CCOC(=O)N1C2CCC1CC(N1CCN(c3ncc(CC)cn3)CC1)C2 (centres unmarked) [Compound 67, 3-[4-(5-ethylpyrimidin-2-yl)piperazin-1-yl]-8-azabicyclo[3.2.1]octane-8-carboxylic acid ethyl ester] | +++ (exhibited muscarinic modulation activity for at least one muscarinic receptor, M1, M2, M3, M4, at a concentration of less than 5 μM) |
| CCOC(=O)N1C2CCC1CC(CN1CCN(c3nccnc3C#N)CC1)C2 (centres unmarked) [Compound 38, 3-[[4-(3-cyanopyrazin-2-yl)piperazin-1-yl]methyl]-8-azabicyclo[3.2.1]octane-8-carboxylic acid ethyl ester] | +++ (exhibited muscarinic modulation activity for at least one muscarinic receptor, M1, M2, M3, M4, at a concentration of less than 5 μM) |
| N#Cc1cccnc1N1CCN(CC2CCC3CCC2C3)CC1 (centres unmarked) [Compound 64, 2-[4-(4-bicyclo[3.2.1]octylmethyl)piperazin-1-yl]nicotinonitrile] | + (exhibited muscarinic modulation activity for at least one muscarinic receptor, M1, M2, M3, M4, at a concentration of greater than 30 μM) |
| N#Cc1nccnc1N1CCN(CC2CC3C=CC2C3)CC1 (centres unmarked) [Compound 70, 3-[4-(5-bicyclo[2.2.1]hept-2-enylmethyl)piperazin-1-yl]pyrazine-2-carbonitrile] | +++ (exhibited muscarinic modulation activity for at least one muscarinic receptor, M1, M2, M3, M4, at a concentration of less than 5 μM) |
